In US6153587A, “Conformationally constrained LH-RH analogues, their uses and pharmaceutical compositions containing them” (Laboratoire THERAMEX, priority 1996, dated 2000):
Several values for one entry are separate records, joined by “and”; a condition that tells them apart may be missing. Equal values may be shown once. Read-outs that look alike come from different tables or passages of the source. Where a SMILES comes first, the peptide text is derived from it. [ ]: non-standard residue; d: D form. The star is where a group is joined. dPhe(4-Cl) = N[C@H](Cc1ccc(Cl)cc1)C(=O)O; d2Nal = N[C@H](Cc1ccc2ccccc2c1)C(=O)O; Lys(iPr) = CC(C)NCCCC[C@H](N)C(=O)O; d3Pal = N[C@H](Cc1cccnc1)C(=O)O; Nicotinoyl = O=C(c1cccnc1)*

Assays:
[1] = biological target: T1, LH-RH receptors (Rattus norvegicus, UniProt P30969); assay: Affinity for LH-RH receptors: [125I]-buserelin binding to rat pituitary membranes; conditions: for Ki: 2 hours at 4° C., Ki from IC50 by Cheng-Prusoff
T1 construct: from tissue; host or cells: rat pituitary membrane fraction (female Sprague Dawley)
T1 sequence (P30969 1-327): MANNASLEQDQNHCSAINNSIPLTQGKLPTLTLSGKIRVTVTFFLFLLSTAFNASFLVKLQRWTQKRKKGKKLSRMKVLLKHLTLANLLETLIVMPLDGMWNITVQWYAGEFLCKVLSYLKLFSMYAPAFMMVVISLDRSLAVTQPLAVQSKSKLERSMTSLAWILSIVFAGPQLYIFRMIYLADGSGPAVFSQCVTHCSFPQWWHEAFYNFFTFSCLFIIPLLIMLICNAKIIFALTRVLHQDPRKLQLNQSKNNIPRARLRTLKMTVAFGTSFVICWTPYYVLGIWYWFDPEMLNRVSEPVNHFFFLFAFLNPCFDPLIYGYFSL
Description: This affinity has been determined according to the following method:
Pituitaries from female Sprague Dawley rats were removed and homogenized with a Potter homogenizer in a 25 mM HEPES buffer (pH 7.4) containing 0.32 M sucrose, 100 μg/l PMSF (phenylmethylsulfonylfluoride), 5.6 U/l aprotinin and 10,000 U/l bacitracin. The homogenates were centrifuged at 700 g for 10 minutes and the supernatants were further centrifuged at 12,500 g for 30 minutes. The pellets were homogenized and centrifuged as described above, in the same buffer but without sucrose.
All homogenization, centrifugation and subsequent incubation steps were carried out at 4° C.
The assay was terminated by filtration under suction (Brandel 96-well harvester) through Whatman GF/B glass fiber filters. […] Each compound was tested in at least 4 experiments.
Specific binding data were analysed according to Scatchard's method.
For each test compound, the inhibitory constant (Ki) was calculated from its IC50 according to the Cheng and Prussofs equation: Ki=IC50 /(1+[radioligand]/Kd). Ki was then transformed into pKi (=-log Ki) for final expression of affinity scales.

[2] = biological target: T1, LH-RH receptors; assay: Total plasma testosterone in male Sprague-Dawley rats after subcutaneous injection; type: in vivo; conditions: 30 nanograms/kg subcutaneous; for Total testosterone: plasma at two hours, male Sprague-Dawley rats
Description: (§1) The peptides according to the general formula (IIa) exert an agonist activity upon the LH-RH receptors in vivo, resulting in the induction of ovulation in the female and in the stimulation of testosterone secretion in the male following acute subcutaneous administration.
Adult male Sprague-Dawley rats are treated by a subcutaneous injection of LH-RH agonists at the same dose of 30 nanograms/kg dissolved in PBS. Two hours later, blood samples are drawn for total plasma testosterone measurement by direct radioimmunoassay (Immunotech). At this dose, LH-RH itself is not active standard LH-RH agonists and selected examples according to formula (Ila) are compared in Table 3 below: […]

[3] = biological target: T1, LH-RH receptors; assay: Inhibition of ovulation in female Wistar rats; type: in vivo
Description: The peptides according to the general formula (IIb) exert an antagonist activity upon the LH-RH receptors in vivo, resulting in the inhibition of ovulation in the female.
Adult female Wistar rats are first monitored for normal estrous cyclicity by daily vaginal smears. After at least 2 regular 4-day cycles, they received by subcutaneous injection either the vehicle alone (0.5 ml of a mixture of propylene-glycol and water: 20/80 vol/vol), or the LH-RH antagonist according to the formula (IIb) dissolved in this vehicle, around 2:00 PM on the day of proestrus.
If effective, LH-RH antagonists totally block ovulation. […] The 50% inhibitory dose of antide is slightly lower than 1 μg/rat.

[4] = biological target: T1, LH-RH receptors; assay: Induction of ovulation in pentobarbital-blocked female Wistar rats; type: in vivo; conditions: subcutaneous
Description: as §1
Adult female Wistar rats are first monitored for normal estrous cyclicity by daily vaginal smears. After at least 2 regular 4-day cycles, they all receive an intraperitoneal injection of 50 mg/kg of sodium pentobarbital around 2:00 PM on the day of proestrus, which blocks the spontaneous ovulation in the negative control animals receiving in addition only the subcutaneous vehicle (PBS: phosphate buffered saline, 0.05 M, pH 7.4 containing 0.1% bovine serum albumin). At the same time, test animals are injected subcutaneously with LH-RH, standard LH-RH agonists or examples according to the formula (Ha), at various doses in solution in the vehicle described above. The following morning, the oviducts are excised and carefully dissected to search for ovocytes. None are found in the negative pentobarbital-blocked animals.
If effective, LH-RH agonists induce ovulation during the night between proestrus and estrus. The percentage of ovulating female rats, defined by the presence of at least one ovocyte in one of the two oviducts, is plotted as a function of the injected dose.

[5] = 20 to 70 μM [125I]-buserelin, read-out: pKi (affinity for LH-RH receptors) (converted)
[6] = pKi (affinity for LH-RH receptors), [125I]-buserelin

Ki [1, 5]	IC50 range in words ([1]; [125I]-buserelin)	Total testosterone [2] [ng/mL]	ED50 (dose producing 50% of ovulation) [4] [nanograms/rat]	Compound	also measured
< 1 nM and 0.105 nM	subnanomolar range	12.7 ± 1.9	–	CCNC(=O)[C@@H]1CCCN1C(=O)[C@H](CCCNC(=N)N)NC(=O)[C@H](CC(C)C)NC(=O)[C@@H](Cc1cn(Cc2ccccc2)cn1)NC(=O)[C@H](Cc1ccc(O)cc1)NC(=O)[C@H](CO)NC(=O)[C@H](Cc1c[nH]c2ccccc12)NC(=O)[C@H](Cc1cnc[nH]1)NC(=O)[C@@H]1CCC(=O)N1 [Histrelin]	–
0.603 nM	subnanomolar range	–	–	CC(=O)N[C@H](Cc1ccc2ccccc2c1)C(=O)N[C@H](Cc1ccc(Cl)cc1)C(=O)N[C@H](Cc1cccnc1)C(=O)N[C@@H](CO)C(=O)N[C@@H](CCCCNC(=O)c1cccnc1)C(=O)N[C@H](CCCCNC(=O)c1cccnc1)C(=O)N[C@@H](CC(C)C)C(=O)N[C@@H](CCCCNC(C)C)C(=O)N1CCC[C@H]1C(=O)N[C@H](C)C(N)=O [Antide] (Ac-[d2Nal][dPhe(4-Cl)][d3Pal]SK(Nicotinoyl)[dK](Nicotinoyl)L[Lys(iPr)]P[dA]-NH2; N-terminus and C-terminus assumed)	Number of ovulating females/total number of treated females ([3]; dose 0.5 μg/rat subcutaneous): 4/5; Number of ovulating females/total number of treated females ([3]; dose 1 μg/rat subcutaneous): 5/16; Number of ovulating females/total number of treated females ([3]; dose 2.5 μg/rat subcutaneous): 2/6; Number of ovulating females/total number of treated females ([3]; dose 5 μg/rat subcutaneous): 0/11; Number of ovulating females/total number of treated females ([3]; dose 10 μg/rat subcutaneous): 0/8; 50% inhibitory dose ([3]; inhibition of ovulation, subcutaneous): lower than 1 μg/rat
< 1 nM and 0.141 nM	subnanomolar range	12.1 ± 0.7	2.9	CC(C)C[C@H](NC(=O)[C@@H](Cc1c[nH]c2ccccc12)NC(=O)[C@H](Cc1ccc(O)cc1)NC(=O)[C@H](CO)NC(=O)[C@H](Cc1c[nH]c2ccccc12)NC(=O)[C@H](Cc1c[nH]cn1)NC(=O)[C@@H]1CCC(=O)N1)C(=O)N[C@@H](CCCNC(=N)N)C(=O)N1CCC[C@H]1C(=O)NCC(N)=O [Tryptorelin]	–
–	–	–	15	CC(C)C[C@H](NC(=O)CNC(=O)[C@H](Cc1ccc(O)cc1)NC(=O)[C@H](CO)NC(=O)[C@H](Cc1c[nH]c2ccccc12)NC(=O)[C@H](Cc1c[nH]cn1)NC(=O)[C@@H]1CCC(=O)N1)C(=O)N[C@@H](CCCNC(=N)N)C(=O)N1CCC[C@H]1C(=O)NCC(N)=O [LH-RH]	activity on testosterone secretion, in words [2]: not active
–	–	11.9 ± 1.5	1.9	CCNC(=O)[C@@H]1CCCN1C(=O)[C@H](CCCNC(=N)N)NC(=O)[C@H](CC(C)C)NC(=O)[C@@H](CC(C)C)NC(=O)[C@H](Cc1ccc(O)cc1)NC(=O)[C@H](CO)NC(=O)[C@H](Cc1c[nH]c2ccccc12)NC(=O)[C@H](Cc1c[nH]cn1)NC(=O)[C@@H]1CCC(=O)N1 [Leuprorelin]	–
< 1 nM and 0.126 nM	subnanomolar range	–	4.8	CCNC(=O)[C@@H]1CCCN1C(=O)[C@H](CCCN=C(N)N)NC(=O)[C@H](CC(C)C)NC(=O)[C@@H](Cc1c[nH]c2ccccc12)NC(=O)[C@H](Cc1ccc(O)cc1)NC(=O)[C@H](CO)NC(=O)[C@H](Cc1c[nH]c2ccccc12)NC(=O)[C@H](Cc1cnc[nH]1)NC(=O)[C@@H]1CCC(=O)N1 [Deslorelin]	–

Compound	Ki [1, 5]	IC50 range in words ([1]; [125I]-buserelin)	Total testosterone [2] [ng/mL]	ED50 (dose producing 50% of ovulation) [4] [nanograms/rat]	also measured
CCNC(=O)[C@@H]1CCCN1C(=O)[C@H](CCCNC(=N)N)NC(=O)[C@H](CC(C)C)NC(=O)[C@@H](COC(C)(C)C)NC(=O)[C@H](Cc1ccc(O)cc1)NC(=O)[C@H](CO)NC(=O)[C@H](Cc1c[nH]c2ccccc12)NC(=O)[C@H](Cc1cnc[nH]1)NC(=O)[C@@H]1CCC(=O)N1 [Buserelin]	–	subnanomolar range	15.4 ± 0.71	–	Ki [1, 6]: < 1 nM and 0.427 nM
CC(C)C[C@H](NC(=O)[C@@H](COC(C)(C)C)NC(=O)[C@H](Cc1ccc(O)cc1)NC(=O)[C@H](CO)NC(=O)[C@H](Cc1c[nH]c2ccccc12)NC(=O)[C@H](Cc1cnc[nH]1)NC(=O)[C@@H]1CCC(=O)N1)C(=O)N[C@@H](CCCNC(=N)N)C(=O)N1CCC[C@H]1C(=O)NNC(N)=O [Goserelin]	–	–	15.0 ± 2.5	4.3	Ki [1, 6]: 2.63 nM
